The values below come from patent publication US20230322670A1, “DIPYRROLIDINE-1-ONE COMPOUNDS AND THEIR PREPARATION METHOD” (Poseidon Pharmaceutical Co., Ltd., priority 2020, published 2023).

Assay [1] can be described thus: Antitumor activity test, sulfonyl rhodamine B (SRB) method. As to conditions: compound concentration 10^−5 M, A-549 cells cultured 72 hours, OD560. The class given is cell-based, human. On the procedure:
(§1) Antitumor activity test: Sulfonyl rhodamine B (SRB) method was used to determine the in vitro anti-tumor activity of A-549 […] cancer cells. A-549 human […] cancer cells in logarithmic growth were inoculated into a 96 well microculture plate with the amount of 90 μL/well. 24 hours later, the solutions respectively containing the compounds 1a, 1b, 1c, 1d, 1e, 1f, 1g, 1h, and 1i of the disclosure were added to the wells with each 10 μL/well, and three wells for each concentration. A cell-free zero adjustment hole was also provided. The concentrations of the compounds 1a, 1b, 1c, 1d, 1e, 1f, 1g, 1h, and 1i in corresponding solution were all 10^−5 M. The tumor cells were cultured at 37° C. under 5% CO2 for 72 hours. The culture medium was discarded, and 100 μL/well of 10% TCA was added to the cells for fixing at 4° C. for 1 hour. The cells were washed three times with distilled water, and dried naturally. 4 mg/mL SRB (Sigma) staining solution of 100 μL/well was added for staining at room temperature for 15 minutes, washed three times with 1% acetic acid aqueous solution, and dried naturally. 100 μL/well of 10 mM Tris base aqueous solution was further added. Then, the optical density (OD560) value was measured using an enzyme-linked immunosorbent assay at a wavelength of 560 nm. The inhibition rate of the tested compounds on tumor cell growth was calculated according to the formula: (control group OD value-administration group OD value)/control group OD value×100%.

For assay [2], the system named is A-549 human breast cancer cells. The assay is described as above. Conditions: Homo sapiens, A549, compound concentration 10^−5 M, A-549 cells cultured 72 hours, OD560, read-out: Inhibitory rates on tumor cell growth (%). The class given is cell-based. On the procedure:
as §1

For the compound `COC(=O)CCc1c(C)[nH]c(C=C2NC(=O)C(CCS(=O)(=O)c3ccc(C)cc3)=C2C)c1C` [Compound 1i, 3,7,9-trimethyl-8-(2-methoxycarbonylethyl)-2-(2-nenenebap-toluenesulfonylethyl)-dipyrrolomethen-1-one], in assay [1], the “Inhibitory rates on tumor cell growth (%)” value (from here on “Inhibitory rates … (%)”) stood at 28.4%.
The same measure, in the same setting: in the case of “9-tert butoxycarbonyl-2,7-dimethyl-8-(2-methoxycarbonylethyl)-3-(2-p-toluenesulfoethyl)-dipyrrolidene-1-one [Compound 1a]” it was 72.3%; in that of “3,7-dimethyl-8-(2-ethoxycarbonylethyl) -2-(2-p-toluenesulfoethyl)-dipyrrolidene-1-one [Compound 1g]”, 35.6%.
With `COC(=O)CCc1c(C)[nH]c(/C=C2\NC(=O)C(CC[S+]([O-])c3ccc(C)cc3)=C2C)c1C` (stereo not drawn) [Compound 1e, 3,7,9-trimethyl-8-(2-methoxycarbonylethyl)-2-(2-p-tolylenesulfonylgroupethyl)-dipyrrolidone], the inhibition at 10 µM in assay [2] came out at 63.4%.
As to `COC(=O)CCc1c(C)[nH]c(/C=C2\NC(=O)C(CCSc3ccc(C)cc3)=C2C)c1C` [Compound 1d, 3,7,9-trimethyl-8-(2-methoxycarbonylethyl) -2-(2-p-toluenesulfoethyl)-dipyrrolidene-1-one], the inhibition at 10 µM in assay [2] was determined as 37.8%.
As for `COC(=O)CCc1c(C(=O)OC(C)(C)C)[nH]c(C=C2NC(=O)C(CCS(=O)(=O)c3ccc(C)cc3)=C2C)c1C` [Compound 1c, 9-tert-butyloxycarbonyl-3,7-dimethyl-8-(2-methoxycarbonylethyl)-2-(2-nenenebap-toluenesulfonylethyl)-dipyrrolomethen-1-one], the “Inhibitory rates … (%)” value in assay [1] was 34.4%.
Same read-out and setting: in the case of “3,7,9-trimethyl-8-(2-methoxycarbonyl ethyl)-2-(2-p-tolylene sulfonyl group ethyl)-dipyrrolidone [Compound 1h]” it was 11.7%; in that of “9-tert-butyloxycarbonyl-3,7-dimethyl-8-(2-methoxycarbonyl ethyl)-2-(2-p-tolylene sulfonyl group ethyl)-dipyrrolomethen-1-one [Compound 1b]”, 57.0%.
As for “3,7,9-trimethyl-8-(2-carboxyethyl) -2-(2-p-toluenesulfoethyl)-Dipyrrolidene-1-one [Compound 1f]”, in assay [1], the “Inhibitory rates … (%)” value came out at 23.5%.
